In test [1] the test system is crabgrass, large (large crabgrass, Digitaria sanguinalis). The test is described as follows: Test F pre-/postemergence: crabgrass, large. The test is classed as in vivo. To be noted: Preemergence. From the text: Seeds of plant species selected from corn (Zea mays), soybean (Glycine max), velvetleaf (Abutilon theophrasti), lambsquarters (Chenopodium album), poinsettia, wild (wild poinsettia, Euphorbia heterophylla), pigweed, palmer (palmer pigweed, Amaranthus palmeri), waterhemp (common waterhemp, Amaranthus rudis), surinam grass (Brachiaria decumbens), crabgrass, Brazil (Brazilian crabgrass, Digitaria horizontalis), panicum, fall (fall panicum Panicum dichotomiflorum), crabgrass, large (large crabgrass, Digitaria sanguinalis), foxtail, giant (giant foxtail, Setaria faberii), foxtail, green (green foxtail Setaria viridis), goosegrass (Eleusine indica), ragweed (common ragweed, Ambrosia elatior), barnyardgrass (Echinochloa crus-galli), sandbur (southern sandbur, Cenchrus echinatus), arrowleaf sida (Sida rhombifolia), ryegrass, Italian (Italian ryegrass, Lolium multiflorum), dayflower, VA (Virginia (VA) dayflower, Commelina virginica), field bindweed (Convolvulus arvensis), cocklebur (common cocklebur, Xanthium strumarium), morningglory (Ipomoea coccinea), nightshade (eastern black nightshade, Solanum ptycanthum), kochia (Kochia scoparia), nutsedge, yellow (yellow nutsedge, Cyperus esculentus), johnsongrass (Sorghum halepense), smartweed (ladysthumb smartweed, Polygonum persicaria), and beggarticks (hairy beggarticks, Bidens pilosa), were planted into a silt loam soil and treated preemergence with test chemicals formulated in a non-phytotoxic solvent mixture which included a surfactant. At the same time, plants selected from these crop and weed species and also pigweed (Amaranthus retroflexus), waterhemp_RES1 (ALS/Triazine resistant common waterhemp, Amaranthus rudis) and waterhemp_RES2 (ALS/HPPD resistant common waterhemp, Amaranthus rudis) were planted in pots containing a planting medium comprising spaghnum peat moss, vermiculite, wetting agent and starter nutrients treated with postemergence applications of some of the test chemicals formulated in the same manner. Plants ranged in height from 2 to 18 cm for postemergence treatments (1- to 4-leaf stage).
Treated plants and controls were maintained in a greenhouse for 14 to 21 days, after which time all species were compared to controls and visually evaluated. Plant response ratings, summarized in Table E, are based on a scale of 0 to 100 where 0 is no effect and 100 is complete control. A dash (-) response means no test result.

Test [2] has as its system cocklebur (common cocklebur, Xanthium strumarium). The experiment in a line: Test F pre-/postemergence: cocklebur. To be noted: Preemergence. The test is classed as in vivo. Summed up:
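Visual response scores, 0 meaning no effect and 100 complete control, were assigned against untreated controls 14 to 21 days after treatment. Test chemicals in a surfactant-containing non-phytotoxic solvent were applied preemergence to seeded silt loam soil or postemergence to 2–18 cm plants in peat-based medium.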

The test system of test [3] is windgrass (Apera spica-venti). The test is described as follows: Test D pre-/postemergence: windgrass. The test is classed as in vivo. Summed up: (§1)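 Visual control ratings (0–100) after 14–21 days, controlled environment. Preemergence on silt loam; postemergence on 2–18 cm plants.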
Test [4] concerns blackgrass (Alopecurus myosuroides). The test is described as follows: Test D pre-/postemergence: blackgrass. In kind it is in vivo. Put shortly: as §1
The subject of test [5] is deadnettle (henbit deadnettle, Lamium amplexicaule). The experiment in a line: Test C postemergence: deadnettle. The test is classed as in vivo. Summed up: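 Greenhouse pot test; foliar postemergence treatment at 1- to 4-leaf stage. Rated visually at 13 to 15 days on a 0–100 control scale relative to untreated plants.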
The next test deals with Oilseed Rape. The test is described as follows: Test C preemergence: oilseed rape. The test is classed as in vivo, Brassica napus. To be noted: 125 g ai/ha, scale 0 to 100, 0 no effect, 100 complete control.
[6] abbreviates: 16 g ai/ha, scale 0 to 100, 0 no effect, 100 complete control.
Where [7] appears, read: 31 g ai/ha, scale 0 to 100, 0 no effect, 100 complete control.
[8] abbreviates: Postemergence, 62 g ai/ha, scale 0 to 100 (0 no effect, 100 complete control).
Setting [9] is: Postemergence, 125 g ai/ha, scale 0 to 100, 0 no effect, 100 complete control.
The mark [10] stands for this setting: Postemergence, 16 g ai/ha, scale 0 to 100.
The mark [11] stands for this setting: Postemergence, 31 g ai/ha, scale 0 to 100.
Where [12] appears, read: Preemergence, 16 g ai/ha, scale 0 to 100, 0 no effect, 100 complete control.
Where [13] appears, read: Preemergence, 31 g ai/ha, scale 0 to 100, 0 no effect, 100 complete control.
Setting [14] is: Preemergence, 62 g ai/ha, scale 0 to 100.
The mark [15] stands for this setting: Preemergence, 125 g ai/ha, scale 0 to 100.
[16] abbreviates: Postemergence, 31 g ai/ha, scale 0 to 100 (0 no effect, 100 complete control).
The mark [17] stands for this setting: 31 g ai/ha, scale 0 to 100 (0 no effect, 100 complete control).
The mark [18] stands for this setting: 62 g ai/ha, scale 0 to 100 (0 no effect, 100 complete control).
Setting [19] is: 125 g ai/ha, scale 0 to 100, 0 no effect, 100 complete control.

Regarding `Cc1nn(-c2ccc(C(F)(F)F)c(F)c2)nc1Oc1ccnc(C(F)(F)F)c1` [Compound 148], the “Plant response rating, Crabgrass, Large” value is given as 95 in test [1] (setting [6]); 100 in test [1] (setting [7]); 100 in test [1] (62 g ai/ha, scale 0 to 100); 100 in test [1] (125 g ai/ha, scale 0 to 100); 100 in test [1] (250 g ai/ha, scale 0 to 100). Further, the “Plant response rating, Cocklebur” value was 0 in test [2] (setting [7]) and 0 in test [2] (125 g ai/ha, scale 0 to 100). The “Plant response rating: Windgrass” value in test [3] (setting [8]) was 60; in test [3] (setting [9]), 80. Also, the “Plant response rating, Windgrass” value amounted to 15 in test [3] (setting [10]); 30 in test [3] (setting [11]); 5 in test [3] (setting [12]); 10 in test [3] (setting [13]); 35 in test [3] (setting [14]); 90 in test [3] (setting [15]). The “Plant response rating: Blackgrass” value in test [4] (setting [16]) stood at 15; in test [4] (setting [8]), 30; in test [4] (setting [9]) it was 65. The “Plant response rating, Blackgrass” value turned out to be 10 in test [4] (setting [10]); 0 in test [4] (setting [12]); 10 in test [4] (setting [13]); 5 in test [4] (setting [14]); 5 in test [4] (setting [15]). The “Plant response rating, Deadnettle” value in test [5] (setting [17]) amounted to 95; in test [5] (setting [18]), 95; in test [5] (setting [19]), 100; in test [5] (250 g ai/ha, scale 0 to 100) it was 100.
For the compound `CCCc1nn(-c2ccc(F)cc2F)nc1Oc1ccnc(C(F)(F)F)c1` [Compound 179], the “Plant response rating, Oilseed Rape” value in the test on Oilseed Rape amounted to 100.
In the case of `Cc1nn(-c2ccc(F)c(C(F)(F)F)c2)nc1Cc1ccnc(C(F)(F)F)c1` [Compound 156], in the test with Oilseed Rape, the “Plant response rating, Oilseed Rape” value stood at 90. Moreover, the “Plant response rating: Windgrass” value in test [3] (setting [8]) stood at 70; in test [3] (setting [9]), 80. The “Plant response rating, Windgrass” value in test [3] (setting [10]) is on record as 25; in test [3] (setting [11]) it was 50; in test [3] (setting [12]), 0; in test [3] (setting [13]) it was 10; in test [3] (setting [14]), 85; in test [3] (setting [15]), 100. Further, the “Plant response rating: Blackgrass” value in test [4] (setting [16]) came to 15; in test [4] (setting [8]) it was 35; in test [4] (setting [9]) it was 60. The “Plant response rating, Blackgrass” value came to 10 in test [4] (setting [10]); 0 in test [4] (setting [12]); 5 in test [4] (setting [13]); 15 in test [4] (setting [14]); 70 in test [4] (setting [15]).
As to `CCc1nn(-c2ccc(C(F)(F)F)cc2)nc1Oc1ccnc(C(F)(F)F)c1` [Compound 169], the “Plant response rating, Crabgrass, Large” value turned out to be 98 in test [1] (setting [6]); 98 in test [1] (setting [7]); 100 in test [1] (62 g ai/ha, scale 0 to 100); 100 in test [1] (125 g ai/ha, scale 0 to 100); 100 in test [1] (250 g ai/ha, scale 0 to 100). The “Plant response rating, Cocklebur” value is reported as 0 in test [2] (setting [6]); 0 in test [2] (setting [7]); 0 in test [2] (62 g ai/ha, scale 0 to 100). For the same compound, the “Plant response rating, Oilseed Rape” value in the test with Oilseed Rape is reported as 100.
Take `CCCc1nn(-c2ccc(F)cc2)nc1Oc1ccnc(C(F)(F)F)c1` [Compound 168]: the “Plant response rating, Oilseed Rape” value in the test with Oilseed Rape is on record as 100.
On the same count and under the same terms, the figure for `CCc1nn(-c2ccc(C(F)(F)F)c(F)c2)nc1Oc1ccnc(C(F)(F)F)c1` [Compound 183] is 100.
As to `CCc1nn(-c2ccc(F)cc2)nc1Cc1ccnc(C(F)(F)F)c1` [Compound 154], the “Plant response rating, Crabgrass, Large” value is reported as 50 in test [1] (setting [6]); 98 in test [1] (setting [7]); 100 in test [1] (62 g ai/ha, scale 0 to 100); 100 in test [1] (125 g ai/ha, scale 0 to 100); 100 in test [1] (250 g ai/ha, scale 0 to 100). The “Plant response rating, Cocklebur” value was found to be 0 in test [2] (setting [6]); 0 in test [2] (62 g ai/ha, scale 0 to 100); 0 in test [2] (250 g ai/ha, scale 0 to 100). The “Plant response rating, Oilseed Rape” value with Oilseed Rape turned out to be 90.
Turning to `CCCc1nn(-c2ccc(C(F)(F)F)cc2)nc1Oc1ccnc(C(F)(F)F)c1` [Compound 170], in the test with Oilseed Rape, the “Plant response rating, Oilseed Rape” value is listed as 100.
Same read-out and setting: the figure for `CCOc1nn(-c2ccc(Cl)cc2)nc1Cc1ccnc(C(F)(F)F)c1` [Compound 188] is 100; for `FCc1nn(-c2ccc(F)cc2)nc1Oc1ccnc(C(F)(F)F)c1` [Compound 160] it is 80.
As for `CCOc1nn(-c2ccc(F)cc2)nc1Cc1ccnc(C(F)(F)F)c1` [Compound 196, 4-[[5-ethoxy-2-(4-fluorophenyl)-2H-1,2,3-triazol-4-yl]methyl]-2-(trifluoromethyl)pyridine], the “Plant response rating, Crabgrass, Large” value in test [1] (setting [6]) worked out at 75; in test [1] (setting [7]), 100; in test [1] (62 g ai/ha, scale 0 to 100), 100; in test [1] (125 g ai/ha, scale 0 to 100), 100. In addition, the “Plant response rating, Cocklebur” value in test [2] (setting [7]) was determined as 0; in test [2] (62 g ai/ha, scale 0 to 100) it was 0; in test [2] (125 g ai/ha, scale 0 to 100), 0. In addition, the “Plant response rating: Windgrass” value in test [3] (setting [8]) and in test [3] (setting [9]) was 95 in each case. In addition, the “Plant response rating, Windgrass” value stood at 60 in test [3] (setting [10]); 75 in test [3] (setting [11]); 20 in test [3] (setting [12]); 100 in test [3] (setting [13]); 100 in test [3] (setting [14]); 100 in test [3] (setting [15]). Moreover, the “Plant response rating: Blackgrass” value came to 65 in test [4] (setting [16]), 85 in test [4] (setting [8]) and 80 in test [4] (setting [9]). The “Plant response rating, Blackgrass” value in test [4] (setting [10]) is recorded as 15; in test [4] (setting [12]), 10; in test [4] (setting [13]) it was 20; in test [4] (setting [14]), 100; in test [4] (setting [15]), 100. The “Plant response rating, Deadnettle” value amounted to 100 in test [5] (setting [17]); 100 in test [5] (setting [18]); 100 in test [5] (setting [19]); 100 in test [5] (250 g ai/ha, scale 0 to 100).
As for `CCCc1nn(-c2ccc(F)c(F)c2)nc1Oc1ccnc(C(F)(F)F)c1` [Compound 172], the “Plant response rating, Crabgrass, Large” value in test [1] (setting [7]) came out at 100; in test [1] (125 g ai/ha, scale 0 to 100), 100; in test [1] (250 g ai/ha, scale 0 to 100) it was 100. In test [2] (250 g ai/ha, scale 0 to 100), the “Plant response rating, Cocklebur” value is recorded as 5. Besides, the “Plant response rating, Oilseed Rape” value in the test with Oilseed Rape is recorded as 98.
On to `CCc1nn(-c2ccc(F)c(F)c2)nc1Oc1ccnc(C(F)(F)F)c1` [Compound 171], for which the “Plant response rating, Crabgrass, Large” value in test [1] (setting [6]) was determined as 75; in test [1] (setting [7]), 98; in test [1] (62 g ai/ha, scale 0 to 100), 98; in test [1] (125 g ai/ha, scale 0 to 100) it was 100; in test [1] (250 g ai/ha, scale 0 to 100) it was 100. The “Plant response rating, Cocklebur” value was determined as 0 in test [2] (setting [6]); 0 in test [2] (setting [7]); 0 in test [2] (62 g ai/ha, scale 0 to 100). In the test with Oilseed Rape, the “Plant response rating, Oilseed Rape” value was determined as 50.
Regarding `CCOCc1nn(-c2ccc(F)cc2)nc1Oc1ccnc(C(F)(F)F)c1` [Compound 163], the “Plant response rating, Oilseed Rape” value in the test with Oilseed Rape came out at 80.

Values taken from patent US9302999B2, “Substituted triazoles as herbicides” (E. I. DU PONT DE NEMOURS AND COMPANY, priority 2012, dated 2016).
